Experimental data from patent US9776979B2, “EBI2 modulators” (Sanford-Burnham Medical Research Institute, priority 2013, dated 2017).
pIC50: −log10 of the molar value.

Biological target: EBI2 (Homo sapiens, UniProt P32249)
Assay: Cell-based luminescent assay (EBI2 modulation)
Details: not given
Outline: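 Cells plated overnight at 37° C, then exposed to compound at 4-5 uM final with 80 nM 7a,25-OHC agonist for 60 min at 37° C. Luminescence read after 60 min detection at 25° C in the dark; values normalized to neutral and stimulator controls and plate-pattern corrected.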

Sequence of EBI2 (P32249 whole entry): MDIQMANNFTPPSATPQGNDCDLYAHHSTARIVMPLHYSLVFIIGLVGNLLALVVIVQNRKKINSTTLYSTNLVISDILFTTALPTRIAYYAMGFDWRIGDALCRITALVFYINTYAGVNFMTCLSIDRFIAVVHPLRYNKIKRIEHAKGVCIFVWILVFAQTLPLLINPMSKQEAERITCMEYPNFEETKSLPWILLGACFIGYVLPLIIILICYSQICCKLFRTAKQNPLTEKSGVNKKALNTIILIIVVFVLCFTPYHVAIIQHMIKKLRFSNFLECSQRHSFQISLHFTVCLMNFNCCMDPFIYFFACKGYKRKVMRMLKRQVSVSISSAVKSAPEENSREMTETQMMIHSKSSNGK

Question: With `O=C(/C=C/c1ccccc1)N1CCN(Cc2ccc(Cl)cc2)CC1` [Compound C354, (2E)-1-{4-[(4-chlorophenyl)methyl]piperazinyl}-3-phenylprop-2-en-1-one] as the molecule, how does the pIC50 read?
Answer: > 7.00

Same assay, conditions: cell-based luminescence; 7a,25-OHC final assay concentration 80 nM; 60 minutes incubation; read-out: IC50

Question: `O=C(C#Cc1cc(F)cc(F)c1)N1CCN(Cc2ccc(Cl)cc2)CC1` [Compound C294, 3-(3,5-difluorophenyl)-1-{4-[(4-chlorophenyl)methyl]piperazinyl}prop-2-yn-1-one] was tested. Which pIC50 did it give?
Answer: 6.30 to 7.00

Question: `CCN1CCN(C(=O)c2cc3cc(Cl)ccc3[nH]2)CC1` [Compound C295, 5-chloroindol-2-yl 4-ethylpiperazinyl ketone] was tested. Which pIC50 did it give?
Answer: 6.30 to 7.00

Question: `O=C(c1ccc2nc[nH]c2c1)N1CCN(C(c2ccccc2)c2ccccc2)CC1` [Compound C296, benzimidazol-5-yl 4-(diphenylmethyl)piperazinyl ketone] was tested. Which pIC50 did it give?
Answer: 6.30 to 7.00

Question: With `O=C(C=Cc1ccc2c(c1)OCO2)N1CCN(Cc2ccc(Cl)cc2)CC1` [Compound C297, 3-(2H-benzo[3,4-d]1,3-dioxolan-5-yl)-1-{4-[(4-chlorophenyl)methyl]piperazinyl}prop-2-en-1-one] as the molecule, how does the pIC50 read?
Answer: 6.30 to 7.00

Question: With `O=C(C=Cc1ccc2c(c1)OCO2)N1CCN(Cc2ccc(Br)cc2)CC1` [Compound C298, 3-(2H-benzo[3,4-d]1,3-dioxolan-5-yl)-1-{4-[(4-bromophenyl)methyl]piperazinyl}prop-2-en-1-one] as the molecule, how does the pIC50 read?
Answer: 6.30 to 7.00

Question: How did the pIC50 turn out when `O=C(c1ccc2nc(C(F)(F)F)[nH]c2c1)N1CCN(C(c2ccccc2)c2ccccc2)CC1` [Compound C299, 4-(diphenylmethyl)piperazinyl 2-(trifluoromethyl)benzimidazol-5-yl ketone] was run?
Answer: 6.30 to 7.00

Question: With `O=C(/C=C/c1ccc(Cl)cc1F)N1CCN(C(=O)c2cc3cc(Cl)ccc3[nH]2)CC1` [Compound C300, (2E)-3-(4-chloro-2-fluorophenyl)-1-{4-[(5-chloroindol-2-yl)carbonyl]piperazinyl}prop-2-en-1-one] as the molecule, how does the pIC50 read?
Answer: > 7.00

Question: `O=C(c1ccc2cc3ccccc3cc2c1)N1CCN(C(c2ccccc2)c2ccccc2)CC1` [Compound C301, 2-anthryl 4-(diphenylmethyl)piperazinyl ketone] was tested. Which pIC50 did it give?
Answer: > 7.00

Question: How did the pIC50 turn out when `O=C(C#Cc1cccc(Cl)c1)N1CCN(Cc2ccc(F)cc2C(F)(F)F)CC1` [Compound C302, 3-(3-chlorophenyl)-1-(4-{[4-fluoro-2-(trifluoromethyl)phenyl]methyl}piperazinyl)prop-2-yn-1-one] was run?
Answer: > 7.00

Question: How did the pIC50 turn out when `COc1ccc2cc(C(=O)N3CCN(C(c4ccccc4)c4ccccc4)CC3)[nH]c2c1` [Compound C304, 4-(diphenylmethyl)piperazinyl 6-methoxyindol-2-yl ketone] was run?
Answer: > 7.00

Question: With `Nc1ccc(/C=C/C(=O)N2CCN(C(c3ccccc3)c3ccccc3)CC2)cc1` [Compound C305, (2E)-3-(4-aminophenyl)-1-[4-(diphenylmethyl)piperazinyl]prop-2-en-1-one] as the molecule, how does the pIC50 read?
Answer: > 7.00

Question: `CCOc1ccc(/C=C/C(=O)N2CCN(S(=O)(=O)c3ccc(C(C)=O)cc3)CC2)cc1` [Compound C307, 4-({4-[(2E)-3-(4-ethoxyphenyl)prop-2-enoyl]piperazinyl}sulfonyl)-1-acetylbenzene] was tested. Which pIC50 did it give?
Answer: > 7.00

Question: `O=C(/C=C/c1ccccc1)N1CCN(Cc2cccc3ccccc23)CC1` [Compound C308, (2E)-1-[4-(naphthylmethyl)piperazinyl]-3-phenylprop-2-en-1-one] was tested. Which pIC50 did it give?
Answer: > 7.00

Question: `O=C(C#Cc1ccccc1C(F)(F)F)N1CCN(C(=O)c2ccc(Cl)cc2)CC1` [Compound C309, 1-{4-[(4-chlorophenyl)carbonyl]piperazinyl}-3-[2-(trifluoromethyl)phenyl]prop-2-yn-1-one] was tested. Which pIC50 did it give?
Answer: > 7.00

Question: `O=C(c1ccc(-c2nnn[nH]2)cc1)N1CCN(C(=O)c2cc3ccc(Br)cc3[nH]2)CC1` [Compound C310, 6-bromoindol-2-yl 4-[(4-(1H-1,2,3,4-tetraazol-5-yl)phenyl)carbonyl]piperazinyl ketone] was tested. Which pIC50 did it give?
Answer: > 7.00

Question: `S=C(c1cnc2ccccc2c1)N1CCN(C(c2ccccc2)c2ccccc2)CC1` [Compound C311, [4-(diphenylmethyl)piperazinyl]-3-quinolylmethane-1-thione] was tested. Which pIC50 did it give?
Answer: > 7.00

Question: With `CCCCN1CCN(C(=O)/C=C/c2ccccc2)CC1` [Compound C312, (2E)-1-(4-butylpiperazinyl)-3-phenylprop-2-en-1-one] as the molecule, how does the pIC50 read?
Answer: > 7.00

Question: `COc1cccc(S(=O)(=O)N2CCN(C(=O)/C=C/c3ccc(F)cc3)CC2)c1` [Compound C314, (2E)-3-(4-fluorophenyl)-1-{4-[(3-methoxyphenyl)sulfonyl]piperazinyl}prop-2-en-1-one] was tested. Which pIC50 did it give?
Answer: > 7.00

Question: With `O=C(c1cc2cc(Cl)ccc2[nH]1)N1CCC(Oc2ccc(F)cc2)CC1` [Compound C315, 5-chloroindol-2-yl 4-(4-fluorophenoxy)piperidyl ketone] as the molecule, how does the pIC50 read?
Answer: > 7.00

Question: `O=C(C#Cc1cccc(Cl)c1)N1CCN(Cc2ccc(Cl)cc2)CC1` [Compound C316, 3-(3-chlorophenyl)-1-{4-[(4-chlorophenyl)methyl]piperazinyl}prop-2-yn-1-one] was tested. Which pIC50 did it give?
Answer: > 7.00

Question: With `O=C(c1cc2cc(Cl)ccc2[nH]1)N1CCC(Oc2ccc(Cl)cc2)CC1` [Compound C317, 5-chloroindol-2-yl 4-(4-chlorophenoxy)piperidyl ketone] as the molecule, how does the pIC50 read?
Answer: > 7.00

Question: With `O=C(c1cc2cc(Cl)ccc2[nH]1)N1CCN(Cc2ccc(F)cc2)CC1` [Compound C319, 5-chloroindol-2-yl 4-[(4-fluorophenyl)methyl]piperazinyl ketone] as the molecule, how does the pIC50 read?
Answer: > 7.00

Question: `O=C(/C=C/c1ccccc1Cl)N1CCN(C(c2ccccc2)c2ccccc2)CC1` [Compound C320, (2E)-1-[4-(diphenylmethyl)piperazinyl]-3-(2-chlorophenyl)prop-2-en-1-one] was tested. Which pIC50 did it give?
Answer: > 7.00

Question: With `Cc1ccc(NC2CCN(C(=O)c3cc4cc(Cl)ccc4[nH]3)CC2)cc1C` [Compound C322, 4-[(3,4-dimethylphenyl)amino]piperidyl 5-chloroindol-2-yl ketone] as the molecule, how does the pIC50 read?
Answer: > 7.00

Question: How did the pIC50 turn out when `O=C(/C=C/c1ccc(F)cc1)N1CCN(S(=O)(=O)Cc2ccccc2)CC1` [Compound C323, (2E)-3-(4-fluorophenyl)-1-{4-[benzylsulfonyl]piperazinyl}prop-2-en-1-one] was run?
Answer: > 7.00

Question: How did the pIC50 turn out when `COC(=O)c1ccc(CN2CCN(C(=O)c3cc4cc(Cl)ccc4[nH]3)CC2)cc1` [Compound C324, methyl 4-({4-[(5-chloroindol-2-yl)carbonyl]piperazinyl}methyl)benzoate] was run?
Answer: > 7.00

Question: With `O=C(c1cc2cc(Cl)ccc2[nH]1)N1CCN(Cc2ccc(-c3ccccc3)cc2)CC1` [Compound C327, 5-chloroindol-2-yl 4-[(4-phenylphenyl)methyl]piperazinyl ketone] as the molecule, how does the pIC50 read?
Answer: > 7.00

Question: With `Cc1ccc2[nH]c(C(=O)N3CCN(Cc4ccc(Cl)c(Cl)c4)CC3)cc2c1` [Compound C328, 4-[(3,4-dichlorophenyl)methyl]piperazinyl 5-methylindol-2-yl ketone] as the molecule, how does the pIC50 read?
Answer: > 7.00

Question: How did the pIC50 turn out when `O=C(c1ccc(C(F)(F)F)c(F)c1)N1CCN(C(=O)c2cc3ccc(Br)cc3[nH]2)CC1` [Compound C329, 6-bromoindol-2-yl 4-{[3-fluoro-4-(trifluoromethyl)phenyl]carbonyl}piperazinyl ketone] was run?
Answer: > 7.00

Question: With `O=C(c1cc2cc(Cl)ccc2[nH]1)N1CCN(Cc2ccc(C(F)(F)F)cc2)CC1` [Compound C331, 5-chloroindol-2-yl 4-{[4-(trifluoromethyl)phenyl]methyl}piperazinyl ketone] as the molecule, how does the pIC50 read?
Answer: > 7.00

Question: How did the pIC50 turn out when `COc1ccc(CN2CCN(C(=O)/C=C/c3ccccc3)CC2)cc1` [Compound C332, (2E)-1-{4-[(4-methoxyphenyl)methyl]piperazinyl}-3-phenylprop-2-en-1-one] was run?
Answer: > 7.00

Question: With `CC(C)(C)c1ccc(S(=O)(=O)N2CCN(C(=O)/C=C/c3ccc(Cl)c(Cl)c3)CC2)cc1` [Compound C334, (2E)-3-(3,4-dichlorophenyl)-1-(4-{[4-(tert-butyl)phenyl]sulfonyl}piperazinyl)prop-2-en-1-one] as the molecule, how does the pIC50 read?
Answer: > 7.00

Question: How did the pIC50 turn out when `O=C(C#Cc1ccc(Br)cc1)N1CCN(C(=O)c2ccc(F)cc2C(F)(F)F)CC1` [Compound C336, 3-(4-bromophenyl)-1-(4-{[4-fluoro-2-(trifluoromethyl)phenyl]carbonyl}piperazinyl)prop-2-yn-1-one] was run?
Answer: > 7.00

Question: With `CC(C)c1ccc2[nH]c(C(=O)N3CCN(C(c4ccccc4)c4ccccc4)CC3)cc2c1` [Compound C338, 4-(diphenylmethyl)piperazinyl 5-(methylethyl)indol-2-yl ketone] as the molecule, how does the pIC50 read?
Answer: > 7.00

Question: `Cc1ccc2[nH]c(C(=O)N3CCN(Cc4ccc(Cl)cc4)CC3)cc2c1` [Compound C339, 4-[(4-chlorophenyl)methyl]piperazinyl 5-methylindol-2-yl ketone] was tested. Which pIC50 did it give?
Answer: > 7.00

Question: With `N#Cc1ccccc1S(=O)(=O)N1CCN(C(=O)/C=C/c2ccc(F)cc2)CC1` [Compound C341, 2-({4-[(2E)-3-(4-fluorophenyl)prop-2-enoyl]piperazinyl}sulfonyl)benzenecarbonitrile] as the molecule, how does the pIC50 read?
Answer: > 7.00

Question: `O=C(C#Cc1cc(F)cc(F)c1)N1CCN(C(=O)c2ccc(Cl)cc2)CC1` [Compound C343, 3-(3,5-difluorophenyl)-1-{4-[(4-chlorophenyl)carbonyl]piperazinyl}prop-2-yn-1-one] was tested. Which pIC50 did it give?
Answer: > 7.00

Question: `O=C(/C=C/c1ccccc1)N1CCN(Cc2ccccc2Br)CC1` [Compound C344, (2E)-1-{4-[(2-bromophenyl)methyl]piperazinyl}-3-phenylprop-2-en-1-one] was tested. Which pIC50 did it give?
Answer: > 7.00

Question: How did the pIC50 turn out when `O=C(c1cc2ccccc2[nH]1)N1CCN(CCc2ccccc2)CC1` [Compound C347, indol-2-yl 4-(phenylethyl)piperazinyl ketone] was run?
Answer: > 7.00

Question: With `O=C(C#Cc1ccc(F)cc1F)N1CCN(C(=O)c2ccc(Cl)cc2)CC1` [Compound C349, 3-(2,4-difluorophenyl)-1-{4-[(4-chlorophenyl)carbonyl]piperazinyl}prop-2-yn-1-one] as the molecule, how does the pIC50 read?
Answer: > 7.00

Question: With `O=C(c1ccc2ccccc2n1)N1CCN(C(c2ccccc2)c2ccccc2)CC1` [Compound C351, 4-(diphenylmethyl)piperazinyl 2-quinolyl ketone] as the molecule, how does the pIC50 read?
Answer: > 7.00

Question: With `O=C(C#Cc1cccc(Cl)c1)N1CCN(Cc2ccc(C(F)(F)F)cc2)CC1` [Compound C353, 3-(3-chlorophenyl)-1-(4-{[4-(trifluoromethyl)phenyl]methyl}piperazinyl)prop-2-yn-1-one] as the molecule, how does the pIC50 read?
Answer: > 7.00
